Data reported in US20240076667A1, “APPLICATION OF ANTISENSE OLIGONUCLEOTIDE TARGETING PBX1 PROMOTER REGION G-QUADRUPLEX IN PREPARATION OF MEDICINE FOR TREATING MELANOMA” (JILIN UNIVERSITY, priority 2022, published 2024).

How the values were obtained:
[1] = system: patient-derived melanoma xenograft (PDX); assay: PDX model of melanoma in NCG mice; assay type: in vivo
Method: PDX model of melanoma: fresh tumor tissues are collected immediately after surgery, placed in RPMI 1640 medium containing penicillin/streptomycin (100 U/ml; 100 μg/ml), fungal zone (1 μg/ml) and Genta Mycin (50 μg/ml) (all from Gibco, USA) (4,5). According to the institutional review and the ethical guidelines for this study approved by the Ethics Committee of the Second Hospital of Jilin University, fresh tumor samples from patients suffering from melanoma are collected for transplantation with informed consent. The mice were kept and all procedures are performed under the approval and supervision of the Institutional Animal Care and Use Committee (IACUC) of the School of Public Health of Jilin University (Changchun, China). Necrotic tissues are excised before transplantation, and tumor tissues are minced to a size of 2×2×2 mm^3, and implanted subcutaneously in the flank of 6-week-old NCG male mice to generate first-generation (F1) PDX mice. Successfully transplanted tumor models are passaged and stored using standard methods. H&E staining is used to evaluate the morphology of patient tumor specimens and xenografts of established PDX models. Treatment with ASO Scr or ASO (intravenous injection, 20 mg/kg) is initiated when the tumor volume of the mice reached 220-280 mm^3. Tumor growth and body weight measurements are performed. Tumors are dissected at the end of treatment for further processing for RNA, protein and histological analysis.
Control:mG*mT*mC*mC*mA*mC*mA*mA*mA*mC*mA*mC*mA*mA*mC*mT*mC* mC*mT*mG*). […] This example also establishes short-term cultures of patient-derived melanoma xenograft (PDX)-derived tumor cells (PDCs) (FIG. 5D). […] To further expand the analysis, this embodiment establishes the PDX model of melanoma, and […] is administered intravenously (intravenous injection) every two days for 21 days.

PBX1 transcript = assay: BG4 RNA immunoprecipitation (RIP) followed by qRT-PCR in A375 cells; assay type: cell-based, human
Method: FIGS. 2A-2G are features formed by dG1 and rG1 in vitro and in cells. In (FIG. 2A), Left: CD spectra of WT and Mut dG1, and Right: CD spectra of WT and Mut rG1. CD is circular dichroism. In (FIG. 2B), Left: gel mobility assay of WT and Mut dG1, and Right: gel mobility assay of WT and Mut rG1. In (FIG. 2C), under specified conditions, fluorescence-on assay of NMM in absence of presence of dG1 or rG1, and their G/A mutant. In (FIG. 2D), the occupancy of BG4 in the PBX1 promoter region is measured in A375 cells by BG4 chromatin immunoprecipitation (ChIP), followed by qRT-PCR. In (FIG. 2E), RNA immunoprecipitation (RIP) detection is performed to show the association between BG4 and the PBX1 transcript in A375 cells, followed by qRT-PCR. In (FIG. 2F), the occupancy of BG4 in the PBX1 promoter region is measured, by the BG4 chip, in A375 cells treated with or without PDS and TMPyP4, followed by qRT-PCR. […] SEM represents the standard error of mean. *P< 0.05, **P< 0.01***P< 0.001.
In this embodiment, several methods are further employed to verify the formation of dG1 and rG1. First, circular dichroism (CD) is used to examine the molar ellipticity of dG1 and rG1 sequences (33 nt) and mutants thereof, and the mutants are designed to eliminate G4 formation. […] N-methyl mesoporphyrin IX (NMN) is the well-known fluorescent G4-specific ligand that can be used for studies of G4 formation in vitro. Both dG1 and rG1 are found to enhance the fluorescence of N N (FIG. 2C). In addition, in this embodiment, chromatin immunoprecipitation (ChIP) and RNA immunoprecipitation (RIP) detection are performed in A375 cells using the well-known G4-specific antibody BG4. […] In summary, dG1 and rG1 can fold stable G4 structures in vitro and in cells. […] Therefore, the ability of these G4-specific ligands to interact with PBX1 G4s is investigated next.
Control:mG*mT*mC*mC*mA*mC*mA*mA*mA*mC*mA*mC*mA*mA*mC*mT*mC* mC*mT*mG*). […] This example also establishes short-term cultures of patient-derived melanoma xenograft (PDX)-derived tumor cells (PDCs) (FIG. 5D). […]

PBX1 [2] = assay: PBX1 mRNA and protein levels by qRT-PCR and western blot in A375 cells; assay type: cell-based, human
Method: (§1) RNA extraction and quantitative RT-PCR detection: total RNA is extracted from cultured cells by using TRIzol (Invitrogen, USA), then is converted into cDNA by SuperScript III First-Strand Synthesis SuperMix (Invitrogen, USA). qRT-PCR detection is performed by using SYBR Green®Mix (Invitrogen, USA) in ABI 7500 (Invitrogen, USA). A relative expression quantity of RNA is calculated by using a comparative CT method.
(§2) Immunoblotting: for protein analysis of a whole-cell lysate, cells are lysed with RIPA (CWBIO, Beijing, China) buffer solution. For tumors, liquid nitrogen is first used to pulverize tissues. Then, the lysate is generated on ice with the RIPA (CWBIO, Beijing, China) buffer solution for 20 minutes, and then centrifuged at 4° C., 13000 rpm for 15 minutes. Protein-containing supernatant is transferred to the fresh microcentrifuge tube, and stored at −20° C. (short-term storage) for subsequent use. The protein is quantified by using the BIO-RAD DC protein assay. The total proteins are electrophoresed on SDS-polyacrylamide gels. Then, the proteins are transferred to polyvinylidene difluoride (PVDF) membrane. After incubation with the primary antibody overnight on the shaker at 4° C., the membrane is washed 6 times (5 minutes each time) with TBS-T (Invitrogen, USA). Then, blots are incubated with horseradish peroxidase (IRP)-conjugated secondary antibodies for 60 minutes at RT on the plate shaker. The membrane is cleaned by TBS-T (6×5 minutes). Detection on immunoreactive bands is performed by using SuperSignalmWest Pico chemiluminescence substrate kit (Thermo Fisher Scientific, USA) and Western blotting detection system (BioRad, USA). GAPDH is used as the loading control for western blotting. The intensity levels of the bands are normalized to GAPDH.

PDCs = assay: Colony forming assay, patient-derived tumor cells; assay type: cell-based, human
Method: (§3) Colony forming assay: for the colony forming assay, A375 and B16-F10 cells are seeded on 6-well plates with the density of 500-1000 cells. After two weeks, staining is performed by using 1% crystal violet at room temperature, rinsing is performed with PBS and tap water, and the number of colonies is counted.
Preparation of patient-derived tumor cells: tumor tissues of PDXs are used in basic RPMI1640 medium (Gibco, USA. Free-FBS medium). Patient-derived tumor cells (PDC) are prepared from cryopreserved xenograft fragments using the tumor isolation kit (Miltenyi Biotec, Germany), following the tumor treatment solution. PDCs are cultured as described by Bruna and Shanker et al. (6,7). PDCs are used for colony forming assays.

B16-F10 cells = assay: In vivo tumor metastasis assay, B16-F10 tail vein injection; design: species or system mice; settings: in vivo studies, summary statement
Method: In vivo tumor metastasis assay: 2×10^5 B16-F10 cells are injected into the tail vein of tail vein tumor. According to solutions formulated by the NCI Animal Care and Use Committee, metastatic endpoints are determined for each experiment by maximal primary tumor burden and/or appearance of moribund mice in all treatment groups. PDS (5 mg/kg) is administered twice a day, for 16 consecutive days.
Bioluminescent tumor cell tracking: in vivo whole-animal imaging, anesthetized mice are injected intraperitoneally with 3 mg of d-luciferin (MCE, USA). Luminescence data is collected on an IVIS system (Perkin Elmer, USA). For live tissue imaging, tissues are perfused with PBS, harvested, and incubated in PBS with 1 μg/ml-1d-luciferin. Data analysis is performed using an IVIS Image software package.

melanoma cell line = assay: Proliferation, migration and invasion of the melanoma cell line (summary statement); assay type: cell-based
Description: The present invention detects the effect of PBX1-G4 on growth and lung metastasis of melanoma and discovers that the expression of PBX1 is positively correlated with the development of melanoma. The sequence of PBX1 is conserved in evolution and is same in mice and human beings. […] The identification of the present invention on the antisense oligonucleotide targeting the PBX1 promoter region G-quadruplex provides the new drug target and new treatment methods and ideas for development of the new generation of medicine for treating melanoma.

A375 cells = assay: Colony forming assay, A375; assay type: cell-based, human
Method: as §3

PBX1 [3] = assay: PBX1 mRNA and protein levels by qRT-PCR and western blot in B16-F10 cells; assay type: cell-based, mouse
Method: as §1, §2

[4] = PDX, intravenous injection 20 mg/kg every two days for 21 days, vs PBX1 ASO scramble
[5] = western blot, normalized to GAPDH

With “ASO: ASO specific for the complementary sequence of rG1 in the 5′ UTR of PBX1: mG*mG*mG*G*T*mT*mG*mC*mG*mG*mG*mG*mT*mG*mA*G*G*G*T*mG* (antisense GGGGTTGCGGGGTGAGGGTG; chemistry not given here)” the “expression of proliferation marker Ki67 in tumors” value ([1]; PDX) was “significant downregulation”, the tumor growth [1, 4] was “significant reduction” and the tumor weight [1, 4] was “significant reduction”. The “expression of PBX1 in tumors” value ([1]; PDX, qRT-PCR and IHC staining) was “significant downregulation”, the growth of melanoma ([1]; in vivo studies, summary statement) was “almost completely inhibits” and the “PBX1 transcript pulled down by BG4” value (PBX1 transcript) was “increases”. The “mRNA level of PBX1” value (PBX1 [2]; qRT-PCR) was “effectively reduce”, the “protein level of PBX1” value (PBX1 [2]; [5]) was “effectively reduce” and the colony formation ability (PDCs) was “decreases”. The “lung metastasis of melanoma” value (B16-F10 cells) was “almost completely inhibits”, the “invasion capability of the melanoma cell line” value (melanoma cell line) was “obviously inhibits” and the “migration capability of the melanoma cell line” value (melanoma cell line) was “obviously inhibits”. For the same substance, the “proliferation capability of the melanoma cell line” value (melanoma cell line) was “obviously inhibits”, the colony formation (A375 cells) was “decreases” and the “mRNA level of PBX1” value (PBX1 [3]; qRT-PCR) was “effectively reduce”. For the same substance, the “protein level of PBX1” value (PBX1 [3]; [5]) was “effectively reduce”.
